Experimental data published in paper PMC5238392, “Origin of anti-tumor activity of the cysteine-containing GO peptides and further optimization of their cytotoxic properties” (Scientific Reports, 2017).

Columns and labels:
[1] = tested on: human lung carcinoma cell line A549; experiment: MTS cell viability assay, A549; format: cell-based
Method: All experiments were conducted in duplicate or triplicate.

HT-1080 cells = experiment: Cell cycle phase distribution, HT-1080; format: cell-based, human; conditions: 24 h incubation with 5 μM
Method: The onset and the progression of the apoptosis are relatively fast, on the time scale of 1 h. […] Indeed, the cell cycle phase distribution remains unaffected by addition of the peptide. For example, in the untreated (control) HT-1080 sample the distribution between G0/G1, S, and G2/M phases is 52%, 23% and 26%, respectively. After 24 h incubation with 5 μM GO-203 this proportion is essentially unchanged at 50%, 24%, and 27%.
The adherent cells were rinsed with PBS, harvested using trypsin-EDTA solution and suspended in the growth medium. To analyze cell cycle phase distribution, 200 μg/ml of saponin (Fluka, USA), 250 μg/ml RNase A, and 50 μg/ml of propidium iodide (both Sigma-Aldrich, USA) were added to each sample tube, thus obtaining DNA stain buffer. After 1 h incubation at room temperature, the samples were analyzed by flow cytometry. To detect apoptosis by flow cytometry, CellEvent Caspase-3/7 Green Flow Cytometry Assay Kit (Thermo Fisher Scientific, USA) and Annexin-V FITC conjugate (BD Biosciences, USA) in combination with propidium iodide have been employed following the manufacturer’s protocols.
Figure S2. Cell cycle distribution for (A) HT-1080 cells treated with one-time dose of 5 μM GO-203 and (B) ZR-75-1 cells treated with one-time dose of 10 μM GO-203. The peptide concentrations have been chosen such as to induce significant cytotoxic effect without causing massive cell death. The data were taken 24 h after the application of the peptide.
Figure S3. H2DCFDA/DCFDA experiment to assess the level of ROS in (A) HT-1080 cells after 30 min incubation with 5 μM GO-203 and (B) ZR-75-1 cells after 30 min incubation with 10 μM GO-203. A statistically significant difference in the intensity of DCF fluorescence response is marked by an asterisk. […]

ZR-75-1 cell line = experiment: H2DCFDA intracellular ROS measurement, ZR-75-1; format: cell-based, human; conditions: 10 μM, 30 min incubation, control 100 ± 11, mean and SD, below statistical significance
Method: Having established these premises, we repeated the measurements using the ROS-sensitive probe H2DCFDA instead of DCFDA. We have observed small, but statistically significant difference between the HT-1080 cells treated by GO-203 and control cells. Specifically, 30 min after application of the peptide the fluorescence signal from the treated cells was ca. 20% lower than the control, 82 ± 6 vs. 100 ± 7 (arbitrary units). The drop in fluorescence from cells that have been treated with GO-203 should be unequivocally attributed to the decreased level of ROS. The effect is small and unlikely to be the source of GO-203 cytotoxic activity. […] The detected drop in ROS level was below the level of statistical significance, 98 ± 3 vs. 100 ± 11 (see Fig. S3). […]
The cells were seeded into 35-mm Nunc culture dishes (Thermo Scientific, USA) at 1.2 × 10^5 cells per dish and allowed to attach for 24 h. […] After that GO-203 was added directly to the suspension and cell fluorescence was measured by flow cytometry at multiple time points during the following 2 hours. […] Cell fluorescence was then immediately measured by flow cytometry. […]
Cell fluorescence was measured using CytoFLEX (Beckman Coulter, USA) flow cytometer equipped with 3 lasers (405, 488 and 633 nm). […] Mean fluorescence intensity from 10,000 cells was acquired. […]

ZR-75-1 = experiment: Rhodamine 123 mitochondrial membrane potential, ZR-75-1; format: cell-based, human; conditions: 30 min after application, same scheme as H2DCFDA/DCFDA measurements
Method: Finally, the same experimental scheme as described above for H2DCFDA/DCFDA measurements was also used with Rhodamine 123. […] The same observation has been made for ZR-75-1.
The cells were seeded into 35-mm Nunc culture dishes (Thermo Scientific, USA) at 1.2 × 10^5 cells per dish and allowed to attach for 24 h. To monitor intracellular ROS in a time-dependent manner, the cells were incubated for 30 min with 10 μM of carboxy-H2DCFDA (Invitrogen, USA), then harvested with trypsin-EDTA and suspended in a fresh medium. After that GO-203 was added directly to the suspension and cell fluorescence was measured by flow cytometry at multiple time points during the following 2 hours. The same procedure was used for mitochondria-specific fluorescent dye Rhodamine 123 (Thermo Fisher Scientific, USA), which was added to a concentration of 5 μM. The complementary side scatter measurements were conducted using 488 nm laser light. In another series of experiments, we have used the related indicator of oxidative stress, H2DCFDA (Invitrogen, USA). The experiment started by adding GO-203 to the cell growth medium; then 10 min later 5 μM of H2DCFDA has been added. After 20 min incubations with H2DCFDA, the cells were harvested with trypsin-EDTA and suspended in a fresh medium. Cell fluorescence was then immediately measured by flow cytometry. […]

“[R]9CQCRRKN [GO-203, in clinical trials]” was tested, and the “Cell viability (MTS)” value ([1]; 1 × 5: single dose of 5 μM, 96 h) was “essentially inconsequential”, the “Cell viability (MTS)” value ([1]; 1 × 20: single dose of 20 μM, 96 h) was “substantially cytotoxic” and the “Cell viability (MTS)” value ([1]; 4/5: four daily doses of 5 μM with exchanged growth medium, 96 h) was “inefficient”. For the same substance, the “Cell viability (MTS)” value ([1]; 4 × 5: four daily doses of 5 μM without exchanging growth medium, OD 492 nm 96 h after first application) was “considerable damage”, the “cells in S phase” value (HT-1080 cells; control 23%) was 24% and the “cells in G2/M phase” value (HT-1080 cells; control 26%) was 27%. For the same substance, the “cells in G0/G1 phase” value (HT-1080 cells; control 52%) was 50%, the “H2DCFDA fluorescence signal (ROS level)” value (ZR-75-1 cell line) was 98 ± 3 arbitrary units and the “Mitochondrial membrane potential (Rhodamine 123)” value (ZR-75-1) was “fully maintained”.
